Assays:
tyrosinase = tyrosinase inhibition; format: biochemical; details: for individual tyrosinase inhibitory capability: isolated compounds; for tyrosinase 50% inhibitory concentration (IC50) of the individual phenolic compound: compound used in isolation
melanocyte cells = assay: inhibition of melanin release by melanocyte cells in vitro; format: cell-based
Excerpt: The inhibition of hyper-pigmentation is not restricted to inhibition at the enzyme level but melanin inhibition can also be achieved in vitro by the inhibition of melanin release by melanocyte cells.

SMILES	tyrosinase 50% inhibitory concentration (IC50) (tyrosinase; L-tyrosine and DOPA used as substrates)	individual tyrosinase inhibitory capability (tyrosinase)	melanin inhibited (melanocyte cells; at concentrations as low as 3.1 μg/ml)	tyrosinase 50% inhibitory concentration (IC50) of the individual phenolic compound (tyrosinase)	melanin reduction (melanocyte cells; at 3.125 μg/ml)
O=C(/C=C/c1ccc(O)cc1)c1ccc(O)cc1O [isoliquirtigenin, reference compound]	896.88 µg/mL				
O=C1C[C@@H](c2ccccc2)Oc2cc(O)cc(O)c21 [Compound C1, 5,7-dihidroxyflavone[(2S)-pinocembrin]]		exhibit individual tyrosinase inhibitory capabilities			
O=c1c(O)c(-c2ccccc2)oc2cc(O)cc(O)c12 [Compound C4, 3,5,7-trihydroxyflavone]		exhibit individual tyrosinase inhibitory capabilities	more than 50%	2.23 µg/mL	
COc1cc(O)c(C(=O)CCc2ccccc2)c(O)c1 [Compound C2, 2′,6′-dihydroxy-4′-methoxydihydrochalcone]		exhibit individual tyrosinase inhibitory capabilities		21.42 µg/mL	20%
O=c1c(-c2ccc(O)cc2)coc2cc(O)cc(O)c12 [Compound C5, 4′,5′7-trihydroxyisoflavone]		exhibit individual tyrosinase inhibitory capabilities			
O=C(CCc1ccccc1)c1c(O)cc(O)cc1O [Compound C3, 2′,4′,6′-trihydroxyhydrochalcone]		exhibit individual tyrosinase inhibitory capabilities		17.86 µg/mL	
